According to EP4512396A1, “TARGETED COVALENT INHIBITORS FOR CARBONIC ANHYDRASES” (Vilnius University, priority 2023, dated 2025):

Columns and labels:
CAIX = assay: stopped-flow CO2 hydration assay before and after dialysis (irreversible enzyme inactivation); assay type: biochemical, human; conditions: for catalytic activity of CAIX after 32 hours of dialysis: […] CAIX incubated 2 h with 15 µM AV19-37 or 100 µM AV19-36, dialyzed in Tris buffer pH 7
CAIII [1] = biological target: T1, CAIII (Homo sapiens, UniProt P07451); assay: Q-TOF mass spectrometry of covalent binding; conditions: CAIII in the presence of ligand
CAXII = CAXII (Homo sapiens, UniProt O43570); assay: fluorescent thermal shift assay (FTSA); assay type: binding; conditions: FTSA at 37 °C and pH 7.0, read-out: Kd_app
CAVII = CAVII (Homo sapiens, UniProt P43166); assay: fluorescent thermal shift assay (FTSA); assay type: binding; conditions: FTSA at 37 °C and pH 7.0, read-out: Kd_app
CAXIII = CAXIII (Homo sapiens, UniProt Q8N1Q1); assay: fluorescent thermal shift assay (FTSA); assay type: binding; conditions: FTSA at 37 °C and pH 7.0, read-out: Kd_app
CA VB = CA VB (Homo sapiens, UniProt Q9Y2D0); assay: fluorescent thermal shift assay (FTSA); assay type: binding; conditions: FTSA at 37 °C and pH 7.0, read-out: Kd_app
CA XIV = CA XIV (Homo sapiens, UniProt Q9ULX7); assay: fluorescent thermal shift assay (FTSA); assay type: binding; conditions: FTSA at 37 °C and pH 7.0, read-out: Kd_app
CA VA = CA VA (Homo sapiens, UniProt P35218); conditions: pH 7
CAIII [2] = biological target: T1, CAIII; assay: fluorescent thermal shift assay (FTSA); assay type: binding
CAVI = CAVI (Homo sapiens, UniProt P23280); assay: fluorescent thermal shift assay (FTSA); assay type: binding; conditions: FTSA at 37 °C and pH 7.0, read-out: Kd_app
CA IV = CA IV (Homo sapiens, UniProt P22748); assay: biochemical
CA IV, sequence (P22748 19-284): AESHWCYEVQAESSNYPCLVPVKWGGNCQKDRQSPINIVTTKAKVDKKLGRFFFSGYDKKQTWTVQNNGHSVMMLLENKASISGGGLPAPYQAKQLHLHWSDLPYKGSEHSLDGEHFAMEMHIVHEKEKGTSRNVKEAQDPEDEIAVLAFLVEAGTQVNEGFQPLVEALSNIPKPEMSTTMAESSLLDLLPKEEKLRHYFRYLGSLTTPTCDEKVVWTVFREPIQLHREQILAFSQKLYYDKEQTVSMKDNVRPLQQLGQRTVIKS

T1 sequence (P07451 whole entry): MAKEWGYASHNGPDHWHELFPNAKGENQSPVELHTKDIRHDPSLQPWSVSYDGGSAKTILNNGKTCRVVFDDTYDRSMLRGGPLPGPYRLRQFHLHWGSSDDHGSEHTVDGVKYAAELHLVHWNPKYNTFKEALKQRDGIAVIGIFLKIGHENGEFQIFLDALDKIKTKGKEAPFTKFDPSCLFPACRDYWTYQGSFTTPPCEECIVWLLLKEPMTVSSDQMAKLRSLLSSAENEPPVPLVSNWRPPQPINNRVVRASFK
CA VA, sequence (P35218 39-305): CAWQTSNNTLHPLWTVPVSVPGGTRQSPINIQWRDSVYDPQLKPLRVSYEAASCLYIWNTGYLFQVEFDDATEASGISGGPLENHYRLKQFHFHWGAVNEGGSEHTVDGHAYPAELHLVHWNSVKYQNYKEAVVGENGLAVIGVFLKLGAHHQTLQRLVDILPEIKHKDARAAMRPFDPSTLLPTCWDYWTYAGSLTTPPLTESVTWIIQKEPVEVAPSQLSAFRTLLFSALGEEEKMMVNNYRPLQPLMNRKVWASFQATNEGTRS
CA XIV, sequence (Q9ULX7 16-337): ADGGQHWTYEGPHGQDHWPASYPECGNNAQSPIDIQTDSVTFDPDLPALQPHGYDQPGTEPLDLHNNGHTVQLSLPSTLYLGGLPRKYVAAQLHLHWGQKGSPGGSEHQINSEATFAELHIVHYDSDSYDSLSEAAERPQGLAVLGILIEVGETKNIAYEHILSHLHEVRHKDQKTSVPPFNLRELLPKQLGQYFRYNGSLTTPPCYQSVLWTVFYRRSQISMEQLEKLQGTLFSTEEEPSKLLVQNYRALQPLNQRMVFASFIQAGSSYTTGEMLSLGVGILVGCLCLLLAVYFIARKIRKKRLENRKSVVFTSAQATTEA
CAXII, sequence (O43570 25-354): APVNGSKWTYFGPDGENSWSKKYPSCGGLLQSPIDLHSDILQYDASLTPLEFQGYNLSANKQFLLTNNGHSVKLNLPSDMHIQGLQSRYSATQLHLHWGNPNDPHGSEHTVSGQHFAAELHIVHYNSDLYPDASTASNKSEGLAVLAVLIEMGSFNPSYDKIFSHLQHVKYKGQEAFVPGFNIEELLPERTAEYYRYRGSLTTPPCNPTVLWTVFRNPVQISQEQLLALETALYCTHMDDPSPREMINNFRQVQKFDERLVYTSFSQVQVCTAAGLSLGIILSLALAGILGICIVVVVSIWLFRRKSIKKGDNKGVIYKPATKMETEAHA
CAXIII, sequence (Q8N1Q1 whole entry): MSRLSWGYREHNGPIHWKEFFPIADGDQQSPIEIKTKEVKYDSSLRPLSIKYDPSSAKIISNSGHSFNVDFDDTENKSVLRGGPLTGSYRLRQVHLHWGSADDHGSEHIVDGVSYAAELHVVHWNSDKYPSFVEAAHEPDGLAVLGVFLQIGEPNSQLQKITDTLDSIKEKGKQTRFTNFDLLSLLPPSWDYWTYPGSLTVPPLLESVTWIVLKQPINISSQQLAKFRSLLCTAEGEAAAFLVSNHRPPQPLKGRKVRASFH
CAVI, sequence (P23280 21-290 limits assumed): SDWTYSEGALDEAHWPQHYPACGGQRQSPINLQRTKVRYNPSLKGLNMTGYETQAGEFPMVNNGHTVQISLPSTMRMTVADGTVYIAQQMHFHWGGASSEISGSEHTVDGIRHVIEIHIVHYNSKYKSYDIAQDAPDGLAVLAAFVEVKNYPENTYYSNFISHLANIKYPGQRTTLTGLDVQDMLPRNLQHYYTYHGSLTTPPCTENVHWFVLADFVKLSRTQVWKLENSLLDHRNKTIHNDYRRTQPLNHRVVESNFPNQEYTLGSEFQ
CA VB, sequence (Q9Y2D0 34-317): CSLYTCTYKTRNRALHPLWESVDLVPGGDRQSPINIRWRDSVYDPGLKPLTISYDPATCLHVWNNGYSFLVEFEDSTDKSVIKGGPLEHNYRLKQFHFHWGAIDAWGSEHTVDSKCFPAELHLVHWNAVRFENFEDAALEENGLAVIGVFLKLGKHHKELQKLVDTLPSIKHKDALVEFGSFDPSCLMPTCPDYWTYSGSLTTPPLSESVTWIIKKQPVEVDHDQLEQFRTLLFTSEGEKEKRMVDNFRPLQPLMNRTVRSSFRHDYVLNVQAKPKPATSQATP
CAVII, sequence (P43166 whole entry): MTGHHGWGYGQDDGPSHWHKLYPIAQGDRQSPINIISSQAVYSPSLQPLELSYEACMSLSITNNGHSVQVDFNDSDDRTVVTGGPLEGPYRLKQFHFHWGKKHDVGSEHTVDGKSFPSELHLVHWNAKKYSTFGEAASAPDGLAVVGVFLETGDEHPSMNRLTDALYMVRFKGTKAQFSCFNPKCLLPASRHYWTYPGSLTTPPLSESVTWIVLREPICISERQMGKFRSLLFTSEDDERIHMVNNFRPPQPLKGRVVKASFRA

With `CC(=O)OCCSc1c(F)c(F)c(S(N)(=O)=O)c(F)c1F` [AV19-36, 2-((2,3,5,6-tetrafluoro-4-sulfamoylphenyl)thio)ethyl acetate] the “catalytic activity of CAIX after 32 hours of dialysis” value (CAIX) was “partially restored its catalytic activity”.

`CC(=O)OCCS(=O)(=O)c1c(F)c(F)c(S(N)(=O)=O)c(F)c1NC1CCCCCCC1` [AV19-37, 2-((2-(cyclooctylamino)-3,5,6-trifluoro-4-sulfamoylphenyl)sulfonyl)ethyl acetate] was tested, and the “covalent modification by MS” value (CAIII [1]) was “did not show a covalent modification”, the “catalytic activity of CAIX after 32 hours of dialysis” value (CAIX) was “not restored” and the “catalytic activity of CAIX after 2 hours of incubation with compound” value (CAIX; […] CAIX, 15 µM AV19-37, CO2 hydration, 25 °C, pH 7.5) was “lost its catalytic activity”.

With `NS(=O)(=O)c1c(F)c(F)c(S(=O)(=O)CCOC(=O)Cc2ccccc2)c(F)c1F` [AV21-25, 2-((2,3,5,6-tetrafluoro-4-sulfamoylphenyl)sulfonyl)ethyl 2-phenylacetate] the Kd (CAXII) was 0.072 nM, the Kd (CAVII) was 0.83 nM and the Kd (CAXIII) was 0.012 nM. It also gave a Kd (CA VB) of 0.017 nM, a Kd (CA XIV) of 0.28 nM and a Kd (CA VA) of 2.5 nM. It also gave a Kd (CAIII [2]) of 18000 nM, a Kd (CAVI) of 0.36 nM and a Kd (CA IV) of 45 nM.
